The target in assay [1] is T1, 5-HT6R (Homo sapiens, UniProt P50406). The assay is described as follows: [3H]-LSD radioligand binding assay, HEK293 cells stably expressing human 5-HT6R. On the set-up: expressed in transfected cells. The following applies: mean of three independent experiments. On the procedure: Final compounds were evaluated in the [^3H]-LSD binding assay using HEK293 cells with stable expression of human 5-HT6R. […] Because the fluorine atom might affect the affinity at target protein as well as physicochemical and pharmacokinetic properties of compound,[22] fluorine substitution at the 2-phenyl ring was applied. […] The analysis of the binding mode of 18 and 28 (Figure 2A) confirmed that the 2-phenyl moiety is placed in the hydrophobic cavity between transmembrane domains (TMs) 4–6.
(§1) All experiments were carried out according to the previously published procedures.[41]−[43] HEK293 cells stably expressing human 5-HT1A, 5-HT6, 5-HT7b, and D2L receptors (prepared with the use of Lipofectamine 2000) or CHO-K1 cells with plasmid containing the sequence coding for the human serotonin 5-HT2A receptor (PerkinElmer) were maintained at 37 °C in a humidified atmosphere containing 5% CO2 and grown in Dulbecco’s modified Eagle’s medium containing 10% dialyzed fetal bovine serum and 500 μg/mL G418 sulfate. For membrane preparation, cells were cultured in 150 cm^2 flasks, grown to 90% confluence, washed twice with prewarmed to 37 °C phosphate buffered saline (PBS), and centrifuged (200g) in PBS containing 0.1 mM EDTA and 1 mM dithiothreitol. Prior to membrane preparation, pellets were stored at −80 °C. Cell pellets were thawed and homogenized in 10 volumes of assay buffer using an Ultra Turrax tissue homogenizer and centrifuged twice at 35 000g for 15 min at 4 °C, with incubation for 15 min at 37 °C between the centrifugations. The composition of the assay buffers was experimentally selected to achieve the maximum signal window (more details in Supporting Information). All assays were carried out in a total volume of 200 μL in 96-well plates for 1 h at 37 °C except 5-HT1AR and 5-HT2AR which were incubated at room temperature and 27 °C, respectively. The process of equilibration was terminated by rapid filtration through Unifilter plates with a 96-well cell harvester, and radioactivity retained on the filters was quantified on a Microbeta plate reader (PerkinElmer, USA). For displacement studies the assay samples contained the following as radioligands (PerkinElmer, USA): 2.5 nM [^3H]-8-OH-DPAT (135.2 Ci/mmol) for 5-HT1AR; 1 nM [^3H]-ketanserin (53.4 Ci/mmol) for 5-HT2AR; 2 nM [^3H]-LSD (83.6 Ci/mmol) for 5-HT6R; 0.8 nM [^3H]-5-CT (39.2 Ci/mmol) for 5-HT7R or 2.5 nM [^3H]-raclopride (76.0 Ci/mmol) for D2LR. Nonspecific binding was defined in the presence of 10 μM 5-HT in 5-HT1AR and 5-HT7R binding experiments, whereas 20 μM mianserin, 10 μM methiothepine, and 10 μM haloperidol were used in 5-HT2AR, 5-HT6R, and D2LR assays, respectively. Each compound was tested in triplicate at seven concentrations (10^–10–10^–4 M). The inhibition constants (Ki) were calculated from the Cheng–Prusoff equation.[44]

Assay [2] addresses T1, 5-HT6R. On the set-up: expressed in transfected cells. As to conditions: cited from earlier work.
Assay [3] has as its target T2, 5-HT2AR (Homo sapiens, UniProt P28223).
T2 construct: host or cells: CHO-K1
Briefly: [3H]-ketanserin radioligand binding assay, CHO-K1 cells. The following applies: mean of three experiments.

Assay [4] has as its target T3, D2R (Homo sapiens, UniProt P14416).
T3 construct: expressed in transfected cells
Briefly: [3H]-raclopride radioligand binding assay, HEK293 cells. As to conditions: mean of three experiments. On the procedure:
as §1

Assay [5] deals with T4, 5-HT1AR (Homo sapiens, UniProt P08908).
T4 construct: expressed in transfected cells
T4 sequence (P08908 1-422): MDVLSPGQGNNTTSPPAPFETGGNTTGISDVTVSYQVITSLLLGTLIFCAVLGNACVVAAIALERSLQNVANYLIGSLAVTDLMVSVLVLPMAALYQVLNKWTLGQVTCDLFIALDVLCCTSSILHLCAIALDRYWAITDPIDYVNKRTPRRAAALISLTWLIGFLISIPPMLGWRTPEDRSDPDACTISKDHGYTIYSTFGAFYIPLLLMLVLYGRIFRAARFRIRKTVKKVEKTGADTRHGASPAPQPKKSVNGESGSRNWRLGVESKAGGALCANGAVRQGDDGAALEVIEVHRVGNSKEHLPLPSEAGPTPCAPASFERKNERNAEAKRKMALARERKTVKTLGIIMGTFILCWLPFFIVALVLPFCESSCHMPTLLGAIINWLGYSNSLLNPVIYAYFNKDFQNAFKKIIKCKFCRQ
The assay is described as follows: [3H]-8-OH-DPAT radioligand binding assay, HEK293 cells. The following applies: mean of three experiments. On the procedure:
as §1

Assay [6] has as its target T5, 5-HT7R (Homo sapiens, UniProt P34969).
T5 construct: expressed in transfected cells
The assay is described as follows: [3H]-5-CT radioligand binding assay, HEK293 cells. As to conditions: mean of three experiments. On the procedure:
as §1

In assay [7] the target is T1, 5-HT6R. The assay is described as follows: Basal cAMP production (constitutive Gs signaling) in NG108-15 cells transiently expressing 5-HT6R, CAMYEL BRET. It is filed as cell-based. On the set-up: expressed in transfected cells; host or cells: NG108-15 (transient, Lipofectamine 2000, cotransfected with the CAMYEL sensor). The following applies: for functional profile: 5-HT6R-dependent Gs signaling, NG108-15 cells; for IC50: decrease of basal cAMP, NG108-15 cells transiently expressing 5-HT6R. On the procedure: NG108-15 cells were grown in Dulbecco’s modified Eagle’s medium (DMEM) supplemented with 10% dialyzed fetal calf serum, 2% hypoxanthine/aminopterin/thymidine (Life Technologies), and antibiotics. cAMP measurement was performed in cells transiently expressing 5-HT6R using the bioluminescence resonance energy transfer (BRET) sensor for cAMP, CAMYEL (cAMP sensor using YFP-Epac-RLuc).[45] NG108-15 cells were cotransfected in suspension with 5-HT6R (0.5 μg DNA/million cells) and CAMYEL constructs (1 μg DNA/million cells), using Lipofectamine 2000 according to the manufacturer’s protocol, and plated in white 96-well plates (Greiner) at a density of 50 000 cells per well. […] Coelanterazine H (Molecular Probes) was added at a final concentration of 5 μM and left at room temperature for 5 min. BRET was measured using a Mithras LB 940 plate reader (Berthold Technologies).
On the technique in general: Cyclic AMP is a second messenger, typically raised through Gs and lowered through Gi signalling.

Assay [8] has as its target T1, 5-HT6R. Briefly: Inhibition of 5-CT-stimulated cAMP production in 1321N1 cells. It is filed as cell-based. On the set-up: expressed in transfected cells. As to conditions: antagonism of 5-CT (1000 nM)-stimulated cAMP. On the procedure: The effect of compounds 18, 22, 27, and 28 on adenylate cyclase was examined in 1321N1 cells expressing the 5-HT6R.
The properties of compounds 18, 22, 27, 28 to inhibit cAMP production induced by 5-CT (1000 nM), a 5-HT6R agonist, were evaluated. Compounds were tested in triplicate at eight concentrations (10^–11–10^–4 M). The level of cAMP was measured using frozen recombinant 1321N1 cells expressing the human serotonin 5-HT6R (PerkinElmer). Total cAMP was measured using the LANCE cAMP detection kit (PerkinElmer), according to the manufacturer’s recommendations. For quantification of cAMP levels, 2000 cells/well (5 μL) were incubated with a mixture of compounds (5 μL) for 30 min at room temperature in 384-well white opaque microtiter plate. After incubation, the reaction was stopped and cells were lysed by the addition of 10 μL of working solution (5 μL of Eu-cAMP and 5 μL of ULight-anti-cAMP) for 1 h at room temperature. Time-resolved fluorescence resonance energy transfer (TR-FRET) was detected by an Infinite M1000 Pro (Tecan) using instrument settings from LANCE cAMP detection kit manual. Kb values were calculated from Cheng–Prusoff equation specific for the analysis of functional inhibition curves: Kb = IC50/(1 + A/EC50) where A represents agonist concentration, IC50 the concentration of antagonist producing a 50% reduction in the response to agonist, and EC50 the agonist concentration which causes a half of the maximal response.[44]

Like-named read-outs stand apart in the source and are kept apart here.

T1 sequence (P50406 whole entry, the tested form may be a part): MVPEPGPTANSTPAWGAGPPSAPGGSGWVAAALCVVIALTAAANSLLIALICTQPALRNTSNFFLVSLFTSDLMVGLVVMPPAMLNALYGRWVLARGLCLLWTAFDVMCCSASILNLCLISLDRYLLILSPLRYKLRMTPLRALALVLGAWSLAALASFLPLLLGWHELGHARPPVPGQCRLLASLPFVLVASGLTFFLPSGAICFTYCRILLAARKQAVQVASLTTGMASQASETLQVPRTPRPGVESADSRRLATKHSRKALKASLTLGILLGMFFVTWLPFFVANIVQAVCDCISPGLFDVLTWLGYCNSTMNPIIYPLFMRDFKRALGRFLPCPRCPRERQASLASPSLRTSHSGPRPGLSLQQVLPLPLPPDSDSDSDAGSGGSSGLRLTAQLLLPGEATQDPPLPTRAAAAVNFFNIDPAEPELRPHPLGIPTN
T2 sequence (P28223 whole entry): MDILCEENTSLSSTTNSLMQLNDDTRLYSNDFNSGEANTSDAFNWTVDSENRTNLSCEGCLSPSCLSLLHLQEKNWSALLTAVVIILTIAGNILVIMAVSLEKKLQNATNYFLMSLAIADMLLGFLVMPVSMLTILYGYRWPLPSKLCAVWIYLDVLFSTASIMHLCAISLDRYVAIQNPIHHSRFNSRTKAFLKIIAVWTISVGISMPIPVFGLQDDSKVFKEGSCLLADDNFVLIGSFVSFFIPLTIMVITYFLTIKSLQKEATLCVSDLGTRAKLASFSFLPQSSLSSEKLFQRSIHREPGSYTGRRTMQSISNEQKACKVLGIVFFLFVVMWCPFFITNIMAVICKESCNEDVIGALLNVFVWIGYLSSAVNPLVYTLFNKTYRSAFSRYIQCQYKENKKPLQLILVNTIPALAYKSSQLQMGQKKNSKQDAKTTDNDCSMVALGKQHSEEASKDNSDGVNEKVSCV
T3 sequence (P14416 whole entry): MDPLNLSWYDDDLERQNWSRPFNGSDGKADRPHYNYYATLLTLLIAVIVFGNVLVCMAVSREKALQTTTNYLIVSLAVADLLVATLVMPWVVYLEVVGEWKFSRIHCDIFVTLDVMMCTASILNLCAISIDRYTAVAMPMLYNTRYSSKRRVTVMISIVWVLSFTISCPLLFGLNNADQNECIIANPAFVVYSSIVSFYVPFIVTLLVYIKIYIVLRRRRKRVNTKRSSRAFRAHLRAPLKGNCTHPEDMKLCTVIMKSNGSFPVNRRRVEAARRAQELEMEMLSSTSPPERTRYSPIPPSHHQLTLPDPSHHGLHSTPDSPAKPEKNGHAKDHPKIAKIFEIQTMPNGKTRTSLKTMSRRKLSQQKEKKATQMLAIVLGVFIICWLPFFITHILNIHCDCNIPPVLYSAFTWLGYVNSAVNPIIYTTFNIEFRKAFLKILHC
T5 sequence (P34969 1-432): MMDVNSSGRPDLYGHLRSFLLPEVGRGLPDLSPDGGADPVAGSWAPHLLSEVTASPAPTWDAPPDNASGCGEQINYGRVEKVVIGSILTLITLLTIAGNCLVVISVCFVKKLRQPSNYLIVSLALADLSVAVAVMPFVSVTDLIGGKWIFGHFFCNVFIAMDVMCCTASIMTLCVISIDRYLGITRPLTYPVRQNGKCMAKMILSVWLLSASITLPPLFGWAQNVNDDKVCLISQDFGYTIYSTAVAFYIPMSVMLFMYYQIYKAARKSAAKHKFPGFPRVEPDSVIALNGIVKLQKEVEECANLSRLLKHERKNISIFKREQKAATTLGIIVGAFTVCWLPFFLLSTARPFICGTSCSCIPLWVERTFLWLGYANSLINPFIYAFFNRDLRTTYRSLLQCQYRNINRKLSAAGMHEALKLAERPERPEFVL

For the compound `O=C(N[C@H]1CCNC1)c1ccn(S(=O)(=O)c2cccc(OC(F)(F)F)c2)c1-c1ccccc1` [Compound 16], the Ki (in general, a measure of affinity in units of concentration, obtained from inhibition or displacement) in assay [1] came to 31 nM. On to `O=C(N[C@@H]1CCNC1)c1ccn(S(=O)(=O)c2ccc(F)cc2)c1-c1cccc(F)c1` [Compound 23], for which, in assay [1], the affinity, expressed as Ki, was 853 nM.

In assay [1], `Cc1cccc(S(=O)(=O)n2ccc(C(=O)N[C@@H]3CCNC3)c2-c2ccccc2)c1` [Compound 11] returned a Ki of 96 nM. Take `O=C(N[C@@H]1CCNC1)c1ccn(S(=O)(=O)c2cccc(F)c2)c1-c1ccccc1` [Compound 12]: the Ki in assay [1] was determined as 88 nM. Same read-out and setting: next, `O=C(N[C@@H]1CCNC1)c1ccn(S(=O)(=O)c2cccc(C(F)(F)F)c2)c1-c1ccccc1` [Compound 13]: 159 nM; `Cn1cc(S(=O)(=O)n2ccc(C(=O)N[C@H]3CCNC3)c2-c2ccccc2)cn1` [Compound 20]: 1460 nM. `O=S(=O)(c1ccccc1)n1ccc2c(NC3CCNC3)nc3ccccc3c21` (stereo not drawn) [I]: the inhibition constant Ki in assay [2] is 10 nM. Compound `O=C(N[C@@H]1CCNC1)c1ccn(S(=O)(=O)c2ccccc2Cl)c1-c1ccccc1` [Compound 10] came in with an inhibitory constant (Ki) in assay [1] of 179 nM. The same measure, in the same setting: next, `O=C(N[C@H]1CCNC1)c1ccn(S(=O)(=O)c2ccc(F)cc2)c1-c1ccc(F)cc1` [Compound 30]: 638 nM; `O=C(N[C@H]1CCNC1)c1ccn(S(=O)(=O)c2cccc3ccccc23)c1-c1ccc(F)cc1` [Compound 31]: 391 nM. On the same count and under the same terms, next, `Cc1ccccc1S(=O)(=O)n1ccc(C(=O)N[C@@H]2CCNC2)c1-c1ccccc1` [Compound 9]: 324 nM; `O=C(N[C@@H]1CCNC1)c1ccn(S(=O)(=O)c2ccccc2)c1-c1ccc(F)cc1` [Compound 24]: 102 nM; `COc1cccc(S(=O)(=O)n2ccc(C(=O)N[C@@H]3CCNC3)c2-c2ccc(F)cc2)c1` [Compound 25]: 350 nM. Same read-out and setting: next, `O=C(N[C@H]1CCNC1)c1ccn(S(=O)(=O)c2cccs2)c1-c1ccccc1` [Compound 19]: 162 nM. In turn, `O=C(N[C@H]1CCNC1)c1ccn(S(=O)(=O)c2ccccc2)c1-c1ccccc1` [Compound 8] came in with an inhibition constant (Ki) in assay [1] of 106 nM. On to `O=C(N[C@H]1CCNC1)c1ccn(S(=O)(=O)c2cccc(Cl)c2)c1-c1cccc(F)c1` [Compound 22, (S)-2-(3-Fluorophenyl)-1-[(3-chlorophenyl)sulfonyl)-N-(pyrrolidin-3-yl)-1H-pyrrole-3-carboxamide], for which the Ki was 15200 nM in assay [3]; 6660 nM in assay [4]; 28 nM in assay [1]; 65700 nM in assay [5]; 7060 nM in assay [6]. In addition, the functional profile result in assay [7] was “inverse agonist”. The IC50 (as a rule, the midpoint of a concentration-inhibition curve) in assay [7] was 306 nM. Also, in assay [8], the Kb (commonly the equilibrium dissociation constant of an antagonist, usually derived from a functional assay) came out at 6 nM. On to `O=C(N[C@H]1CCNC1)c1ccn(S(=O)(=O)c2cccc(Cl)c2)c1-c1ccccc1` [Compound 18, (S)-2-Phenyl-1-[(3-chlorophenyl)sulfonyl]-N-(pyrrolidin-3-yl)-1H-pyrrole-3-carboxamide], for which the inhibition constant (Ki) in assay [3] was 14600 nM; in assay [4] it was 6840 nM; in assay [1], 25 nM; in assay [5], 1370 nM; in assay [6] it was 65500 nM. The functional profile result in assay [7] is reported as “inverse agonist”. Besides, the IC50 in assay [7] is 170 nM. Besides, in assay [8], the antagonist equilibrium constant (Kb) is 35 nM. `O=C(N[C@H]1CCNC1)c1ccn(S(=O)(=O)c2cccc(C(F)(F)F)c2)c1-c1ccccc1` [Compound 14]: the inhibition constant Ki in assay [1] stood at 38 nM.

`O=C(N[C@@H]1CCNC1)c1ccn(S(=O)(=O)c2cccc(OC(F)(F)F)c2)c1-c1ccccc1` [Compound 15] showed a Ki in assay [1] of 52 nM. In turn, `O=C(N[C@@H]1CCNC1)c1ccn(S(=O)(=O)c2cccc(Cl)c2)c1-c1cccc(F)c1` [Compound 21] showed a Ki in assay [1] of 98 nM. For the compound `O=C(N[C@H]1CCNC1)c1ccn(S(=O)(=O)c2cccc3cccnc23)c1-c1ccc(F)cc1` [Compound 32], the inhibitory constant (Ki) in assay [1] amounted to 1210 nM. The same measure, in the same setting: as for `O=C(N[C@@H]1CCNC1)c1ccn(S(=O)(=O)c2ccccc2)c1-c1ccccc1` [Compound 7], the figure is 208 nM; as for `O=C(N[C@@H]1CCNC1)c1ccn(S(=O)(=O)c2cccc(Cl)c2)c1-c1ccccc1` [Compound 17], 35 nM; as for `O=C(N[C@@H]1CCNC1)c1ccn(S(=O)(=O)c2cccc(F)c2)c1-c1ccc(F)cc1` [Compound 26], 56 nM.

`O=C(N[C@@H]1CCNC1)c1ccn(S(=O)(=O)c2ccc(F)cc2)c1-c1ccc(F)cc1` [Compound 29]: the affinity in assay [1] corresponds to a Ki of 2580 nM.

These data come from publication PMC8041276 (ACS Chemical Neuroscience, 2021).
